By Ki is commonly meant a measure of affinity in units of concentration, obtained from inhibition or displacement. In general, IC50 refers to the concentration that inhibits the measured activity by half. For orientation: EC50 means the midpoint of the concentration-response curve.

Calls of active or inactive are those of the source. Some results are limits rather than exact numbers.

Results on six compounds are retold here after ChEMBL document CHEMBL1201862, “PubChem BioAssay data set” (2004).

For assay [1], the target named is Vascular endothelial growth factor receptor 2 (Homo sapiens, UniProt P35968). It counts as functional.
Vascular endothelial growth factor receptor 2, sequence (P35968 whole entry): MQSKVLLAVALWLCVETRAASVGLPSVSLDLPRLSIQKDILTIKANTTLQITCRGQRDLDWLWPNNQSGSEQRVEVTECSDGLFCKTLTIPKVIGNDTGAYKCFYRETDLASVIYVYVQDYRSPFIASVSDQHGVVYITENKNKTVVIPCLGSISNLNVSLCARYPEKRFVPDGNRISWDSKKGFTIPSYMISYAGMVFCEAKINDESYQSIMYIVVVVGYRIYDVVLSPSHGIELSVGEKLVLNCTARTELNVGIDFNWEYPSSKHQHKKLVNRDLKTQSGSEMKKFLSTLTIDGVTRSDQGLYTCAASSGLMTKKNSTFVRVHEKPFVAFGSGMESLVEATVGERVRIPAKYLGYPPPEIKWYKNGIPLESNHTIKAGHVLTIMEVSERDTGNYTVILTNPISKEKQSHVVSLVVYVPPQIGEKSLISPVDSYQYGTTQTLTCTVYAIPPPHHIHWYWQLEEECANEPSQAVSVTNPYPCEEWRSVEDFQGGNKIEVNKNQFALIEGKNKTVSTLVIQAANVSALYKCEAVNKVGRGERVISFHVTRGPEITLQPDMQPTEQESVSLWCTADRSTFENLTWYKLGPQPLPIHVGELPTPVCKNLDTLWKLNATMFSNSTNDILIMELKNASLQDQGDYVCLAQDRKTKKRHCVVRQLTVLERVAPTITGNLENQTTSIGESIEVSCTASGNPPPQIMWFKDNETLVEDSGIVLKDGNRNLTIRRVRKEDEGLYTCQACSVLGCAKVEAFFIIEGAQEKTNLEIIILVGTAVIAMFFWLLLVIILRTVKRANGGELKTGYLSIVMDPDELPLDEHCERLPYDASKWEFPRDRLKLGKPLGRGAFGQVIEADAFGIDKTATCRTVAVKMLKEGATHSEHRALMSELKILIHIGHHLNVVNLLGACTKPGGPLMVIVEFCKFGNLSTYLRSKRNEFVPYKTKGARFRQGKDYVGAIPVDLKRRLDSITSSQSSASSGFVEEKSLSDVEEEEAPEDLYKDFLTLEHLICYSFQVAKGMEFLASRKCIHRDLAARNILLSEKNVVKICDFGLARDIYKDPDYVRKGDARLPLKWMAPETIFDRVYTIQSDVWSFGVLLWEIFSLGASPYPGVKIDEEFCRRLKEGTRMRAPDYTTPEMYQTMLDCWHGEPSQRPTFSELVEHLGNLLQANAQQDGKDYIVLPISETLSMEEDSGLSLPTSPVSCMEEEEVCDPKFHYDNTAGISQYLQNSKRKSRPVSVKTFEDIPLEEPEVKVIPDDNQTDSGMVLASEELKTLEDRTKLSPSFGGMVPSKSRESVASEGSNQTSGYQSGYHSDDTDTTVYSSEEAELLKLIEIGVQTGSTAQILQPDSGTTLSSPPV
The target of assay [2] is Cyclin-dependent kinase 5 (Homo sapiens, UniProt Q00535). Format: functional.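 Note: CDK5 measured as one member of a kinase profiling panel.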
Assay [3] concerns the target 5'-AMP-activated protein kinase catalytic subunit alpha-1 (Homo sapiens, UniProt Q13131). It counts as functional.
In assay [4] the target is Dual specificity protein kinase CLK2 (Homo sapiens, UniProt P49760). Format: functional.
Dual specificity protein kinase CLK2, sequence (P49760 whole entry): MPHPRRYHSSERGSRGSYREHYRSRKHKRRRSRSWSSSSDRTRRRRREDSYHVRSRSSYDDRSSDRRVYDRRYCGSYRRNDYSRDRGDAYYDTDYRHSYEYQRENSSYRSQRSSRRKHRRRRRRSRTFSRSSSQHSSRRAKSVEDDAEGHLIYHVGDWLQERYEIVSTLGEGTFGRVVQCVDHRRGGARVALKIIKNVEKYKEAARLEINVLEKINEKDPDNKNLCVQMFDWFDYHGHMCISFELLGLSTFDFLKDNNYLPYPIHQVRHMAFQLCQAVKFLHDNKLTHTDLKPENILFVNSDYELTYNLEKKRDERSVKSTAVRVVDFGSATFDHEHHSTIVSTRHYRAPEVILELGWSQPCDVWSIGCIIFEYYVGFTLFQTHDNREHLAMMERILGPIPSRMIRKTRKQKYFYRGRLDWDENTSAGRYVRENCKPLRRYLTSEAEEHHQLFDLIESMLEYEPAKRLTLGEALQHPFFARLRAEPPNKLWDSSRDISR
Assay [5] concerns the target Leukocyte tyrosine kinase receptor (Homo sapiens, UniProt P29376). Kind of assay: Navigating the Kinome. Panel member name: LTK. Format: functional.
A further assay addresses Activated CDC42 kinase 1 (Homo sapiens, UniProt Q07912). Kind of assay: Navigating the Kinome. Panel member name: ACK1. It counts as functional.
Assay [6] has as its target cAMP-dependent protein kinase catalytic subunit alpha (Homo sapiens, UniProt P17612). It counts as functional.
Assay [7] has as its target Dual specificity mitogen-activated protein kinase kinase 1 (Homo sapiens, UniProt Q02750). The assay is described as follows: Navigating the Kinome. Panel member name: MAP2K1. It counts as functional.
Assay [8] deals with Dual specificity mitogen-activated protein kinase kinase 2 (Homo sapiens, UniProt P36507). The assay is described as follows: Navigating the Kinome. Panel member name: MAP2K2. Format: functional.
Assay [9] deals with T1, cAMP-dependent protein kinase catalytic subunit PRKX (Homo sapiens, UniProt P51817).
T1 sequence (P51817 whole entry): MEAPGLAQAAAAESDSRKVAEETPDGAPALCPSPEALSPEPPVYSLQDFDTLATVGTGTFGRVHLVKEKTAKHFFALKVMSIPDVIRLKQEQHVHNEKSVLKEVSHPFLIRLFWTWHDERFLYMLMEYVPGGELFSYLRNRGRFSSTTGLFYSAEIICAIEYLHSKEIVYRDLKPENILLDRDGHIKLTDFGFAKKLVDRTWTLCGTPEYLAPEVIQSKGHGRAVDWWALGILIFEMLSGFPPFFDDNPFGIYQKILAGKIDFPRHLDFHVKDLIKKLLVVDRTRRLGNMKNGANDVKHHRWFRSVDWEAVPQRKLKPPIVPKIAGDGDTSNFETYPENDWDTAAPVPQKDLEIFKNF
It counts as functional.

In assay [10] the target is BDNF/NT-3 growth factors receptor (Homo sapiens, UniProt Q16620). It counts as functional.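 Note: NTRK2 measured as one member of a broad kinome-wide kinase profiling panel.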
BDNF/NT-3 growth factors receptor, sequence (Q16620 whole entry): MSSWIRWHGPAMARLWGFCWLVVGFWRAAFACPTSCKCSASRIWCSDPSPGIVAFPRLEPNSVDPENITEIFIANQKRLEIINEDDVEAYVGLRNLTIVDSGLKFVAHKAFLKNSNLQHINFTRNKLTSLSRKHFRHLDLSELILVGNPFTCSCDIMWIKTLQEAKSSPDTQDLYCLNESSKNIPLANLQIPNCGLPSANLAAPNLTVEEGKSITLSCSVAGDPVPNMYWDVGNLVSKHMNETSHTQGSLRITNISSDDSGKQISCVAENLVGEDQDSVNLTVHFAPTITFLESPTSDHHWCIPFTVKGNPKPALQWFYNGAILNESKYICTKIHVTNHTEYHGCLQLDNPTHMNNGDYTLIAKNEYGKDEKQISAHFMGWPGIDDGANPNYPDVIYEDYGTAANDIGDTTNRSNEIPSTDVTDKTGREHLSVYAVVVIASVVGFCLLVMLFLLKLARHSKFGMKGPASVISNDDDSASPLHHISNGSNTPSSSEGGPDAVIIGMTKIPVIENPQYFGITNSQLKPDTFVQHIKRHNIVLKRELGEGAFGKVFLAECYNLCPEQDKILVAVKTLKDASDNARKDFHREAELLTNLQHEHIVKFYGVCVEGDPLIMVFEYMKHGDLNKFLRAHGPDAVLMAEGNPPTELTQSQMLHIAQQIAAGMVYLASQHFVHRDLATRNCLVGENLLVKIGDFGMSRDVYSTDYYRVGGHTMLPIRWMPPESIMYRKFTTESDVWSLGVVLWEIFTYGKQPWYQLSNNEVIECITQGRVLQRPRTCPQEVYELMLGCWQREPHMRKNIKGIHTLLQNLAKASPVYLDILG
The target in assay [11] is Macrophage-stimulating protein receptor (Homo sapiens, UniProt Q04912). Kind of assay: Navigating the Kinome. Panel member name: MST1R. It counts as functional.
Assay [12] concerns the target Casein kinase I isoform alpha (Homo sapiens, UniProt P48729). Format: functional.
The next assay concerns the target Focal adhesion kinase 1 (Homo sapiens, UniProt Q05397). It counts as functional.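 Note: measured as one member of a kinome panel.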
The target of assay [13] is Dual specificity tyrosine-phosphorylation-regulated kinase 1A (Homo sapiens, UniProt Q13627). Format: functional.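 Note: measured against DYRK1A as one member of a broad kinome profiling panel.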
Assay [14] concerns the target Platelet-derived growth factor receptor alpha (Homo sapiens, UniProt P16234). Kind of assay: Navigating the Kinome. Panel member name: PDGFRA. It counts as functional.
For a further assay, the target named is Melanocortin receptor 4 (Homo sapiens, UniProt P32245). Kind of assay: MC4R antagonist potency on cAMP, dose response, cell-based, TR-FRET, biased antagonists (AID 602298).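 Note: antagonist potency against agonist-stimulated cAMP production.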 Format: functional.
Melanocortin receptor 4, sequence (P32245 whole entry): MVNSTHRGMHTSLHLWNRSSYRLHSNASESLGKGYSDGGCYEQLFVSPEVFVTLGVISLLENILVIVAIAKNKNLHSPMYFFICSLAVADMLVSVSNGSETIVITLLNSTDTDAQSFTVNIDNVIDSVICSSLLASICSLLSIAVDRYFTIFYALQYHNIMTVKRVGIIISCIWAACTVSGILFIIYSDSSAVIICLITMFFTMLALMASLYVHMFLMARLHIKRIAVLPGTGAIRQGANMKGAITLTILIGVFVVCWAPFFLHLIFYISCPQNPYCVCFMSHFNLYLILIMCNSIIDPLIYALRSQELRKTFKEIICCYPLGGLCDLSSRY
Assay [15] is described as follows: nonselective inhibitors of cellular cAMP signaling, dose response, counter-screen for MC4R biased antagonist project, cell-based, TR-FRET cAMP detection (AID 602305).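 Note: U2OS cells stimulated with forskolin near its EC80 as the cAMP inducer; potency is for inhibition of forskolin-stimulated cAMP signaling.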 Format: functional. (A counterscreen serves to expose hits that act by an unwanted route or on another target.)
Assay [16] deals with Potassium voltage-gated channel subfamily KQT member 2 (Rattus norvegicus, UniProt O88943). The assay is described as follows: KCNQ2 potassium channel inhibitors, dose response, cell-based, automated electrophysiology, set II, rat KCNQ2 (AID 588637). It counts as functional.
In assay [17] the target is Glucose-6-phosphate 1-dehydrogenase (Homo sapiens, UniProt P11413). The assay is described as follows: human G6PD enzyme inhibitors, dose response, selectivity assay for P. falciparum G6PD inhibitor project, biochemical, fluorescence (AID 504792). It counts as functional.
A short description of assay [18]: Counterscreen for IDE inhibitors: Luminescence-based cell-based high throughput dose response assay to identify compounds that are cytotoxic to HEK cells. [Related pubchem assays: 434962 (Primary screen (IDE inhibitors in singlicate)), 449730 (Counterscreen (Cytotoxicity in triplicate)), 435028 (Confirmation (IDE inhibitors in triplicate)) …. It counts as functional. As to conditions: HEK293.

The target in a further assay is Large T antigen (Simian virus 40, UniProt P03070). It counts as functional, Betapolyomavirus macacae.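 Note: Confirmatory-stage PubChem screen for compounds that inhibit SV40 T antigen.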
Large T antigen, sequence (P03070 whole entry): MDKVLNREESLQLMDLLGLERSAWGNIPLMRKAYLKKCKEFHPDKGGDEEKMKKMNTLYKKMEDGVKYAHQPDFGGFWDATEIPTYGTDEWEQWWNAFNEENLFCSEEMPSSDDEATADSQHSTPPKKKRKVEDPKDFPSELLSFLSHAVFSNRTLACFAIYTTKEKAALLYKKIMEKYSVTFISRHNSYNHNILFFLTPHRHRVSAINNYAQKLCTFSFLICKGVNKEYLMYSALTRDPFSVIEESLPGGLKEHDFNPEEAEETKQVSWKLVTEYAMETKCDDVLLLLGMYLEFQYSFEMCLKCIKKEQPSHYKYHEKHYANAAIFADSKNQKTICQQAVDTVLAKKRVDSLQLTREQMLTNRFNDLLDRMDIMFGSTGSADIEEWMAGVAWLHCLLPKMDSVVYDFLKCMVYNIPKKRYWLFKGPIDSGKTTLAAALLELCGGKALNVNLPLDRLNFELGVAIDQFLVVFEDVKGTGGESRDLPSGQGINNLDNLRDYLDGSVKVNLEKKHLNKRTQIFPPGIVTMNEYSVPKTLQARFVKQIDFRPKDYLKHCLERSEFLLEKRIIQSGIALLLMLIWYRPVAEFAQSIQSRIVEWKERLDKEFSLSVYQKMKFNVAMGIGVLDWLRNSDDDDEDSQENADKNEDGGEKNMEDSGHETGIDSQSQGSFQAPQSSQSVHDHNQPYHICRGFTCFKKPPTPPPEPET
The next assay deals with T2, Insulin-degrading enzyme (Homo sapiens, UniProt P14735).
T2 sequence (P14735 whole entry): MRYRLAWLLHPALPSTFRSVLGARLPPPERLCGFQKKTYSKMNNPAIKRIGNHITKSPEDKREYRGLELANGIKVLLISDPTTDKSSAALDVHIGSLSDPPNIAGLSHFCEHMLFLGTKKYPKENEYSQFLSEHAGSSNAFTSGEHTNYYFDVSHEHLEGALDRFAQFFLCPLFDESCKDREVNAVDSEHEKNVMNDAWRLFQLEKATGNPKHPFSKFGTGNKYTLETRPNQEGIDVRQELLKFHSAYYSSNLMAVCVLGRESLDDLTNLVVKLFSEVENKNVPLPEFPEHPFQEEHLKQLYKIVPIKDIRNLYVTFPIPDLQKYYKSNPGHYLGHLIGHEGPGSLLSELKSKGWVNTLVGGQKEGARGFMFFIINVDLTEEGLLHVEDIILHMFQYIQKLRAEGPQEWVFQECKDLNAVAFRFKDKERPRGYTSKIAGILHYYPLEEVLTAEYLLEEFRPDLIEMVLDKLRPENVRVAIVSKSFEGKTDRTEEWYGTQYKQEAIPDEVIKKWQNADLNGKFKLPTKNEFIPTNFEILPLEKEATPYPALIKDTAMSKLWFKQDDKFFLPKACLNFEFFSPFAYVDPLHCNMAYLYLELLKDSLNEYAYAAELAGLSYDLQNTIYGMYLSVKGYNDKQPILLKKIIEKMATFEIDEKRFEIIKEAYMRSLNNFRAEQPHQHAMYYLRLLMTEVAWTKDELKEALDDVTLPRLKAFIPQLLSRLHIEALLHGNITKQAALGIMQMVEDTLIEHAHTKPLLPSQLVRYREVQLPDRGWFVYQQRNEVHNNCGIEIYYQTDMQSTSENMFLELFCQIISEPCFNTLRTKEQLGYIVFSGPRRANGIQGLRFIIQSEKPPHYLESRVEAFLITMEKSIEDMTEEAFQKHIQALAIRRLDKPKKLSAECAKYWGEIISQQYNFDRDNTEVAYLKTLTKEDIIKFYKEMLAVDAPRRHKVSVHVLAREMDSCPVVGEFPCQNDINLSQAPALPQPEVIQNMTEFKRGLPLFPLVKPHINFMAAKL
Kind of assay: Dose Response: Fluorescence polarization-based cell-based high throughput dose response assay for inhibitors of insulin-degrading enzyme (IDE). [Related pubchem assays: 434962 (Primary screen (IDE inhibitors in singlicate)), 449730 (Counterscreen (Cytotoxicity in triplicate)), 435028 (Confirmation (IDE inhibitors in triplicate)), 434984 (Summary …. Format: functional. In general terms: Polarisation of emitted light reports the rotation of a fluorescent probe.

Assay [19] deals with T3, Mitochondrial peptide methionine sulfoxide reductase (Bos taurus, UniProt P54149).
T3 sequence (P54149 whole entry): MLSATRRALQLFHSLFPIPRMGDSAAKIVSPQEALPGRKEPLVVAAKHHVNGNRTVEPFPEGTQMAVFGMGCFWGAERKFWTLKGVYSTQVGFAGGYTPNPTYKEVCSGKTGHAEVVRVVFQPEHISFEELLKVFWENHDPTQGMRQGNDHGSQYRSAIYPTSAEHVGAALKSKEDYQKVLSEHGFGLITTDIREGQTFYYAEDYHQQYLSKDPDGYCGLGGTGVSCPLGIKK
The assay is described as follows: Absorbance-based biochemical high throughput dose response assay for activators of Methionine sulfoxide reductase A (MsrA). It counts as functional.

The target in assay [20] is Cyclin-dependent kinase 9 (Homo sapiens, UniProt P50750). It counts as functional.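 Note: value from the CDK9 entry of a kinome-spanning kinase panel.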
The target in assay [21] is Macrophage colony-stimulating factor 1 receptor (Homo sapiens, UniProt P07333). It counts as functional.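 Note: value comes from the Navigating the Kinome screening panel, CSF1R member.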
In assay [22] the target is Cyclin-dependent kinase 19 (Homo sapiens, UniProt Q9BWU1). Kind of assay: Navigating the Kinome. Panel member name: CDC2L6. Format: functional.
A further assay deals with T4, Aurora kinase A (Homo sapiens, UniProt O14965).
T4 sequence (O14965 whole entry): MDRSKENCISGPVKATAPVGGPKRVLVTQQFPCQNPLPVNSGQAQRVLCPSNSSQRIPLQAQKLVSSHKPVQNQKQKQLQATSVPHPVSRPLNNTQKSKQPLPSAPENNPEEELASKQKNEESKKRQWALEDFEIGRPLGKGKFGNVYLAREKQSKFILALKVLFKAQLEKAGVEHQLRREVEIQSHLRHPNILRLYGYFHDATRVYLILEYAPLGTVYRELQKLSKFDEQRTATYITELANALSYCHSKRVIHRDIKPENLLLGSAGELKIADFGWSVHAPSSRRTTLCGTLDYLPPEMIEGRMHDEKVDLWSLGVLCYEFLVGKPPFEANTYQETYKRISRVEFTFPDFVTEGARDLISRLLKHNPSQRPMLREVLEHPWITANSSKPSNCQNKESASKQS
It counts as functional.

Assay [23] deals with Dual specificity protein kinase CLK4 (Homo sapiens, UniProt Q9HAZ1). It counts as functional.
The target in assay [24] is Platelet-derived growth factor receptor beta (Homo sapiens, UniProt P09619). It counts as functional.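 Note: value comes from a kinome panel, with PDGFRB tested as one panel member.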
Assay [25] concerns the target Dual specificity tyrosine-phosphorylation-regulated kinase 1B (Homo sapiens, UniProt Q9Y463). Kind of assay: Navigating the Kinome. Panel member name: DYRK1B. It counts as functional.
For assay [26], the target named is T5, Tyrosine-protein kinase receptor TYRO3 (Homo sapiens, UniProt Q06418).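 Note: TYRO3 value obtained as one member of a kinome-wide profiling panel.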
T5 sequence (Q06418 whole entry): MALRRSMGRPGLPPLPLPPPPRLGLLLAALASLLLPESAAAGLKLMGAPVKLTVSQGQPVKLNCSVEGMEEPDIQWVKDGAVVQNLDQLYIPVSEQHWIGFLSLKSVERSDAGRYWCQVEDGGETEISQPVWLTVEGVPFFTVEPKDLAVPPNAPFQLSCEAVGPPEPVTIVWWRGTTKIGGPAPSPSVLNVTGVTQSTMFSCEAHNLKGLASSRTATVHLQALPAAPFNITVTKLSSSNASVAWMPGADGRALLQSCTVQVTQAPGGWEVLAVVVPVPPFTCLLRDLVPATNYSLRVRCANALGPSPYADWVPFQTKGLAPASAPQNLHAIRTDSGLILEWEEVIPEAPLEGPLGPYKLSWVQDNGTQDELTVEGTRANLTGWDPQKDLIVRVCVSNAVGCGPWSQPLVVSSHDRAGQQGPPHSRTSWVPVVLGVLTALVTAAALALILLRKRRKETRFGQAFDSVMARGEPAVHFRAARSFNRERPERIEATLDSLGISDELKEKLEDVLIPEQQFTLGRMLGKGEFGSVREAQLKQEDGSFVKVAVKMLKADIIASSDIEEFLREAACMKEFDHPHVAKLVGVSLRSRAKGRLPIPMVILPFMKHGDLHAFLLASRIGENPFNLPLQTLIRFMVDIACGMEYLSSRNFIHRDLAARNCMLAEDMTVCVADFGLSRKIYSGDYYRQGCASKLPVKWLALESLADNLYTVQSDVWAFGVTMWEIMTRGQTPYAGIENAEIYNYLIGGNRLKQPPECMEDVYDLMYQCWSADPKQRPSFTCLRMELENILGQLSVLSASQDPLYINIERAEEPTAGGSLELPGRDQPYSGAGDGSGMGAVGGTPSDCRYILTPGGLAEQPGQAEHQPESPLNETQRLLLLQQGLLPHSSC
It counts as functional.

The target in assay [27] is Protein kinase C theta type (Homo sapiens, UniProt Q04759). Kind of assay: Navigating the Kinome. Panel member name: PRKCQ. Format: functional.
Protein kinase C theta type, sequence (Q04759 whole entry): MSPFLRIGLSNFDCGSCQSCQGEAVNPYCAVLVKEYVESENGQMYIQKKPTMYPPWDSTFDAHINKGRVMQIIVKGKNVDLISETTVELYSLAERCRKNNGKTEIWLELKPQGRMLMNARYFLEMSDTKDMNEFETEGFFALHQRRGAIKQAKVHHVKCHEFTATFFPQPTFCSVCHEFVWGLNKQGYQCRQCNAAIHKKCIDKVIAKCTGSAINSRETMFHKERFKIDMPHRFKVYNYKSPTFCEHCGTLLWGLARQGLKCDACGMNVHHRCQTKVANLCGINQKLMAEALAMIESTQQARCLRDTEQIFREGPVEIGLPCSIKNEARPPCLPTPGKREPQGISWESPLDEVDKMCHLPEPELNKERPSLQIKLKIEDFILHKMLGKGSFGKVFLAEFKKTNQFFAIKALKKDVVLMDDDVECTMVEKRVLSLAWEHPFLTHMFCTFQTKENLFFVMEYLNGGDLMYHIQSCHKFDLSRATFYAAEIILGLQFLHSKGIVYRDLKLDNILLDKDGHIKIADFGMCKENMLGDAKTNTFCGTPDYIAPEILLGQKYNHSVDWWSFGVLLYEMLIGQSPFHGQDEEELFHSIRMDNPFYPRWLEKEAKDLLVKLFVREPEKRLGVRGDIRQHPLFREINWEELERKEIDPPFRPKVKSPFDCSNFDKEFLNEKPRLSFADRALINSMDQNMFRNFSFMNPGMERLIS

Dual specificity tyrosine-phosphorylation-regulated kinase 1B, sequence (Q9Y463 whole entry): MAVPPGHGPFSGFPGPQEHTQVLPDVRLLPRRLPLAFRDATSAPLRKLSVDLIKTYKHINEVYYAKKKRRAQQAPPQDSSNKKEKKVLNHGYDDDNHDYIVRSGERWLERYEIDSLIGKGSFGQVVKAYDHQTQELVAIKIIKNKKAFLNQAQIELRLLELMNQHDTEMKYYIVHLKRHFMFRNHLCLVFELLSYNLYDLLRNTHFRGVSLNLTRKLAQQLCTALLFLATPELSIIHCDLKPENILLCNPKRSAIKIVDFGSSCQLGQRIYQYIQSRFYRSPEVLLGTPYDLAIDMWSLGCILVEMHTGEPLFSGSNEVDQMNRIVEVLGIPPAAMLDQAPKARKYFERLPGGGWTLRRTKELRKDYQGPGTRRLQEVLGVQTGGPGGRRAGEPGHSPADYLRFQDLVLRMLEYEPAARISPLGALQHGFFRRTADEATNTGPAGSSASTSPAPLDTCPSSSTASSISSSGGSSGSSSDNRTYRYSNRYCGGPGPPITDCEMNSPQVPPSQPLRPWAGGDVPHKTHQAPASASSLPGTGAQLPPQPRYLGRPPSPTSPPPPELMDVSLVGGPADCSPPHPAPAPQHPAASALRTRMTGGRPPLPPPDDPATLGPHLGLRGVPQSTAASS

Turning to `CN(C)CC1CCn2cc(c3ccccc32)C2=C(C(=O)NC2=O)c2cn(c3ccccc23)CCO1` (centres undefined), the Ki was 2 µM (active) in [1]; > 3.16 µM (inactive) in [2]; > 3.16 µM (inactive) in assay [3]; 0.158 µM (active) in assay [4]; > 2.51 µM (inactive) in assay [5]; > 3.98 µM (inactive) on Activated CDC42 kinase 1. In addition, the Ki in [6] was 0.631 µM (active); in [7], > 3.16 µM (inactive); in [8], > 3.98 µM (inactive); in [9], > 3.16 µM (inactive); in assay [10], > 3.98 µM (inactive); in assay [11], 0.2 µM (active). The Ki in assay [12] was > 3.98 µM (inactive); at Focal adhesion kinase 1, > 6.31 µM (inactive); in [13], > 2 µM (inactive); in assay [14] it was > 2.51 µM (inactive).

In the case of `O=C(Oc1cccc(C(=S)N2CCOCC2)c1)c1ccc([N+](=O)[O-])cc1[N+](=O)[O-]`, the IC50 (at Melanocortin receptor 4; in assay [15]) was > 64.6 µM (inactive) in each case.

As for `COC(=O)CSc1nnc(-c2ccc(S(=O)(=O)NCc3ccccc3Cl)cc2)o1`, the IC50 (on Melanocortin receptor 4; in assay [15]) was > 64.6 µM (inactive) throughout.

Take `COc1ccc(-c2cc(C(=O)N3CC(C)CC(C)C3)c3ccccc3n2)cc1OC` (centres undefined): the IC50 in assay [16] was 1.51 µM (active).

On to `CS(=O)(=O)c1ccc(N)c(SSc2cc(S(C)(=O)=O)ccc2N)c1`, for which the IC50 is 23.9 µM (inactive) in assay [17], > 55.7 µM (not active) in [18], 13 µM (active) at Large T antigen and 7.08 µM (active) on Insulin-degrading enzyme. In addition, the EC50 in [19] is > 104 µM (inactive).

On to `O=C1NCc2ccc(-c3ccccc3)cc21`, for which the Ki is > 100 µM (inactive) in [1]; > 63.1 µM (inactive) in assay [20]; > 50.1 µM (inactive) in assay [6]; > 100 µM (inactive) in assay [21]; > 100 µM (inactive) in assay [22]; > 63.1 µM (inactive) at Aurora kinase A. In addition, the Ki in [10] was 25.1 µM (active); in [23], 1.58 µM (active); in assay [24], > 79.4 µM (inactive); in assay [25] it was 100 µM (active); in [26] it was 79.4 µM (active); in [13], > 79.4 µM (inactive). In addition, the Ki in assay [27] is > 100 µM (inactive).
